Reference: patent US20250345330A1 (Veradermics, Incorporated, priority 2024, published 2025)
Where two headings read alike, the source gives them in different places.

Experiments:
[1] = initially; chronic therapy; cited from earlier work
[2] = cited from earlier work; for Cmax: tablets, healthy subjects
Chinese hamster cells = conditions: long exposure times; cited from earlier work
rats [3] = conditions: two-year, oral administration; cited from earlier work
[4] = cited from earlier work
[5] = primarily conjugation with glucuronic acid; cited from earlier work
[6] = tested on: person with androgenetic alopecia; test: Case studies: oral minoxidil in male patients with androgenetic alopecia (blood pressure, heart rate, hair growth); conditions: 1.25 mg QID
rats [7] = conditions: cited from earlier work
male adults with AGA = conditions: 5 mg oral at bedtime; 24 weeks; cited from earlier work

In the case of `Nc1cc(N2CCCCC2)nc(N)[n+]1[O-]` [Minoxidil, minoxidil], the “Temporary decrease in hematocrit, hemoglobin, and erythrocyte count (hemodilution)” value [1] is given as “approximately 7%”, the “Dose dependence of PK” value ([2]; 2.5 mg, 5 mg, or 10 mg oral, healthy volunteers) is given as “dose-independent PK” and the “Duration of plasma concentrations above 20 ng/mL” value ([2]; 5 mg dose level) is given as “around 1 h”. For the same compound, the “Duration of plasma concentrations above 20 ng/mL” value ([2]; 10 mg dose level) was “around 2 h”, the Cmax ([2]; 2.5 mg) was 0.0168 µg/mL and the Cmax ([2]; 5 mg) was 0.0372 µg/mL. For the same compound, the Cmax ([2]; 10 mg) was 0.0747 µg/mL, the Cytogenetic assay result (Chinese hamster cells) was “equivocal result” and the Carcinogenicity findings (rats [3]) was “no positive findings”. For the same compound, the “Radioactivity found in feces” value ([4]; human, in vivo) was 3%, the “Radioactivity recovered from urine, in total” value ([4]; human, in vivo) was 97% and the “Radiolabeled minoxidil and metabolites recovered from urine” value ([4]; within 24 h after oral administration) was “Over 80%”. For the same compound, the “Fraction of oral minoxidil metabolized” value [5] was “About 90%”, the Adverse events [6] was “No unwanted hair growth or other adverse events” and the Fetal resorption (rats [7]) was “not seen in rats”. For the same compound, the Cardiovascular outcomes (male adults with AGA) was “No adverse cardiovascular outcomes were observed”.
